Entries after “also recorded” stand apart in the source; their conditions may differ.
Columns and labels:
Format in all cases: in vivo
[1] = test system: male CF1 mice; experiment: Mouse maximal electroshock (MES) test, male CF1 mice; conditions: for Percentage protection from Tonic Hind limb Extension: Male CF1 mice
Experimental: (§1) Animals. Male NIH Swiss or CF1 mice (Charles-Rivers, 22-34g) were used in the present study. In most of the experiments, male CF1 mice were used. In the experiment exploring the strain difference between CBD and CBG efficacy in the MES test, these compounds were also tested in male NIH Swiss mice. All experiments involving animals complied with the ARRIVE guidelines of the National Centre for the Replacement, Refinement, and Reduction of Animals in Research and were performed in accordance with the National Institutes of Health Guide for the Care and Use of Laboratory Animals (NIH publication No. 8023, revised in 1978) under protocols approved by the University of California, Davis, Institutional Animal Care and Use Committee.
(§2) All the cannabinoids were prepared in ethanol: Cremophor: saline in the ratio of 2:1:17. These were administered Intraperitoneally (IP) in a dose volume of 10 ml/kg.
(§3) Mouse maximal electroshock test. Samples of CBD, both from decarboxylation of cannabidiolic acid (CBDA) and a commercial source, were tested in parallel as a comparator. Samples of CBD and CBG were prepared by decarboxylating their respective active precursors CBDA and cannabigerolic acid (CBGA; 95+% pure) by heating at 102° C. (215° F.) for 60 min. The precursor compounds were isolated from hemp. For comparison, the antiseizure activity of pure, commercial, hemp-derived CBD and chemically synthesized CBG in crystalline form was also determined in the MES test. Also investigated was whether CBDA and CBGA have antiseizure potential at the highest dose tested (150 mg/kg) in this model. Male CF1 mice were used in the current study. Sixty min after IP injection of the cannabinoids, the animals were subjected to a 0.2-s, 60-Hz, 50-mA electrical stimulus delivered with corneal electrodes (5 mm diameter stainless steel balls) wetted with 0.9% saline. Animals failing to show THLE were scored as protected. In the time-response curve experiment, CBG was administered at different times before the MES test. In most of the experiments, male CF1 mice were used. In the experiment exploring the strain difference between CBD and CBG efficacy in the MES test, these compounds were additionally tested in male NIH Swiss mice.

[2] = test system: male NIH Swiss mice; experiment: Mouse maximal electroshock (MES) test, male NIH Swiss mice (strain difference); conditions: for Percentage protection from Tonic Hind limb Extension: Male NIH Swiss mice; for effect in MES test: male NIH Swiss mice
Experimental: as §1, §2, §3

[3] = test system: male CF1 mice; experiment: Mouse pentylenetetrazol (PTZ) test
Experimental: as §1, §2
Mouse pentylenetetrazol (PTZ) test. Sixty min after IP injection of either cannabidiol (CBD) or cannabigerol (CBG) in male CF1 mice, the animals were challenged with 80 or 100 mg/kg PTZ delivered via intraperitoneal (IP) route of administration. The onset of myoclonic jerks, generalized clonus, tonus/tonic extension, and mortality was observed. The percentage of animals was further calculated that underwent these phases caused by PTZ. Failure to observe such phases or delayed onset is considered as protection.

[4] = 50 mg/kg IP, 60 min before MES, male CF1 mice
[5] = 100 mg/kg IP, 60 min before MES, male CF1 mice
[6] = 150 mg/kg IP, 60 min before MES, male CF1 mice
[7] = 200 mg/kg IP, 60 min before MES, male CF1 mice
[8] = male CF1 mice, IP, 60 min before MES
[9] = protection from THLE, male CF1 mice, IP, 60 min before MES
[10] = dose 100, 1 h before MES (0.2-s, 60-Hz, 50-mA)
[11] = dose 150, 1 h before MES (0.2-s, 60-Hz, 50-mA)
[12] = PTZ 80 mg/kg IP, treatment 100 mg/kg IP 1 h before
[13] = PTZ 80 mg/kg IP, treatment 150 mg/kg IP 1 h before
[14] = PTZ 100 mg/kg IP, treatment 150 mg/kg IP 1 h before
[15] = high dose PTZ test (100 mg/kg), treatment 150 mg/kg IP

CCCCCc1cc(O)c2c(c1)OC(C)(CCC=C(C)C)C=C2 (stereo not drawn) [CBC oil, cannabichromene]
Percentage Protection [1, 4]: 11.1% | Percentage Protection [1, 5]: 12.5% | Percentage Protection [1, 6]: 12.5% | Percentage Protection [1, 7]: 25% | fraction of animals protected ([1]; 250 mg/kg IP, 60 min before MES, male CF1 mice): 25% | potency relative to CBD and CBG in MES test [1, 8]: less potent than CBD and CBG

C=C(C)[C@@H]1CCC(C)=C[C@H]1c1c(O)cc(CCCCC)cc1O [CBD obtained from CBDA isolates, cannabidiol]
doses at which animals were protected from THLE [1, 8]: 25 to 150 mg/kg | ED50 (mg/kg, IP) [1, 9]: 62.7 ± 5.6 mg/kg

C=C(C)[C@@H]1CCC(C)=C[C@H]1c1c(O)cc(CCCCC)cc1O [CBD, cannabidiol]
Percentage protection from Tonic Hind limb Extension [1, 10]: 100% | Percentage protection from Tonic Hind limb Extension [1, 11]: 100% | effect in MES test ([1]; male CF1 mice): protected animals from Tonic Hindlimb Extension (THLE); also recorded: effective | Percentage protection from Tonic Hind limb Extension [2, 10]: 12.5% | Percentage protection from Tonic Hind limb Extension [2, 11]: 12.5% | effect in MES test [2]: not protective | Death time (s) [3, 12]: None | Onset of generalized clonus [3, 12]: 333.9 ± 174.3 s | Onset of jerks [3, 12]: 138.1 ± 61.9 s | Onset of tonus (s) [3, 12]: None | Percentage animals having generalized clonus [3, 12]: 87.5% | Percentage animals having tonus [3, 12]: None | Percentage mortality [3, 12]: 0% | Percentage of animals having myoclonic jerks [3, 12]: 100% | Death time (s) [3, 13]: None | Onset of generalized clonus [3, 13]: 612.5 ± 515.5 s | Onset of jerks [3, 13]: 95.6 ± 13.3 s | Onset of tonus (s) [3, 13]: None | Percentage animals having generalized clonus [3, 13]: 25% | Percentage animals having tonus [3, 13]: None | Percentage mortality [3, 13]: 0% | Percentage of animals having myoclonic jerks [3, 13]: 100% | Death time (s) [3, 14]: None | Onset of generalized clonus [3, 14]: 329.3 ± 152.3 s | Onset of jerks [3, 14]: 63.6 ± 4.8 s | Onset of tonus [3, 14]: 1362.5 ± 888.5 s | Percentage animals having generalized clonus [3, 14]: 100% | Percentage animals having tonus [3, 14]: 25% | Percentage mortality [3, 14]: 0% | Percentage of animals having myoclonic jerks [3, 14]: 100% | effect on generalized clonus ([3]; high dose PTZ test (100 mg/kg)): no difference | latency to onset of myoclonic jerks [3, 15]: increased the latency to onset of myoclonic jerks | protection from tonus phase and mortality [3, 15]: protected animals from undergoing tonus phase and mortality | protection from generalized clonus ([3]; low dose PTZ test (80 mg/kg, IP), treatment 150 mg/kg IP): effective in protecting animals from generalized clonus

CCCCCc1cc(O)c(C/C=C(\C)CCC=C(C)C)c(O)c1 [CBG obtained from CBGA, cannabigerol]
doses at which animals were protected from THLE [1, 8]: 65 to 200 mg/kg | ED50 [1, 9]: 99 ± 7.01 mg/kg

CCCCCc1cc(O)c(C/C=C(\C)CCC=C(C)C)c(O)c1 [CBG, cannabigerol]
Percentage protection from Tonic Hind limb Extension [1, 10]: 62.5% | Percentage protection from Tonic Hind limb Extension [1, 11]: 75% | effect in MES test ([1]; male CF1 mice): protected animals from Tonic Hindlimb Extension (THLE); also recorded: effective | time of maximum response (protection from THLE) after administration ([1]; single IP injection of 100 mg/kg, male CF1 mice, tested 15-240 min): 60 to 120 min | Percentage protection from Tonic Hind limb Extension [2, 10]: 12.5% | Percentage protection from Tonic Hind limb Extension [2, 11]: 12.5% | effect in MES test [2]: not protective | Death time (s) [3, 12]: None | Onset of generalized clonus [3, 12]: 199.1 ± 90.6 s | Onset of jerks [3, 12]: 101.1 ± 50.7 s | Onset of tonus (s) [3, 12]: None | Percentage animals having generalized clonus [3, 12]: 87.5% | Percentage animals having tonus [3, 12]: None | Percentage mortality [3, 12]: 0% | Percentage of animals having myoclonic jerks [3, 12]: 87.5% | Death time (s) [3, 13]: None | Onset of generalized clonus [3, 13]: 117.8 ± 46.8 s | Onset of jerks [3, 13]: 93 ± 26.6 s | Onset of tonus [3, 13]: 852.5 ± 170.5 s | Percentage animals having generalized clonus [3, 13]: 62.5% | Percentage animals having tonus [3, 13]: 25% | Percentage mortality [3, 13]: 0% | Percentage of animals having myoclonic jerks [3, 13]: 100% | Death time [3, 14]: 1082.6 ± 265.5 s | Onset of generalized clonus [3, 14]: 200.8 ± 105.9 s | Onset of jerks [3, 14]: 50.1 ± 3.3 s | Onset of tonus [3, 14]: 1351.3 ± 410.7 s | Percentage animals having generalized clonus [3, 14]: 100% | Percentage animals having tonus [3, 14]: 100% | Percentage mortality [3, 14]: 62.5% | Percentage of animals having myoclonic jerks [3, 14]: 100% | overall effect in PTZ seizure test ([3]; PTZ IP, male CF1 mice): had no effect | protection from mortality ([3]; high dose PTZ): protected some animals from mortality

C=C(C)[C@@H]1CCC(C)=C[C@H]1c1c(O)cc(CCCCC)c(C(=O)O)c1O [Cannabidiolic acid (CBDA), cannabidiolic acid]
Percentage Protection [1, 6]: 0% | antiseizure activity ([1]; highest dose tested (150 mg/kg), male CF1 mice): no antiseizure activity

CCCCCc1cc(O)c(C/C=C(\C)CCC=C(C)C)c(O)c1C(=O)O [Cannabigerolic acid (CBGA), cannabigerolic acid]
Percentage Protection [1, 6]: 25%

C=C(C)[C@@H]1CCC(C)=C[C@H]1c1c(O)cc(CCCCC)cc1O [Crystalline hemp derived CBD, cannabidiol]
Percentage Protection [1, 4]: 0% | Percentage Protection ([1]; 65 mg/kg IP, 60 min before MES, male CF1 mice): 37.5% | Percentage Protection ([1]; 75 mg/kg IP, 60 min before MES, male CF1 mice): 37.5% | Percentage Protection ([1]; 85 mg/kg IP, 60 min before MES, male CF1 mice): 50% | Percentage Protection [1, 5]: 75% | Percentage Protection [1, 6]: 75% | ED50 (mg/kg, IP) ([1]; protection from THLE, male CF1 mice, IP, 60 min before MES, listed as commercial CBD): 83.7 ± 5.7 mg/kg

CCCCCc1cc(O)c(C/C=C(\C)CCC=C(C)C)c(O)c1 [cannabigerol]
Percentage Protection [1, 5]: 62.5% | Percentage Protection [1, 6]: 75% | Percentage Protection [1, 7]: 62.5%

Source: patent US20250009766A1, “CA[…] TREATMENT OF SEIZURES AND EPILEPSY” (The Regents of the University of California, priority 2021, published 2025)
